Data on two compounds can be found in US6555578B2, “Thyromimetic antiobesity agents” (Pfizer Inc., priority 1999, dated 2003).

The test system of this assay is whole body oxygen consumption. As to the kind of experiment: In vivo screen: whole body (resting) oxygen consumption in fatty Zucker rats by indirect calorimetry. The following applies: male fatty Zucker rats, oral gavage once daily for 6 days, measured the day after the last dose. The procedure: This in vivo screen is designed to evaluate the efficacy and cardiac effects of compounds that are tissue selective thyroid hormone agonists. The efficacy endpoints measured are whole body oxygen consumption and the activity of liver mitochrondrial alpha-glycerophosphate dehydrogenase (mGPDH). The cardiac endpoints that are measured are heart weight and heart mGPDH activity. The protocol involves dosing fatty Zucker rats for 6 days, then measuring oxygen consumption and harvesting of tissues for preparation of mitochondria and assaying of enzyme activity. […]
Oxygen consumption is measured the day after the last dose of compound is given using an open circuit, indirect calorimeter (Oxymax, Columbus Instruments, 950 North Hague Ave., Columbus, Ohio 43204). […] Rats are removed from their home cages, their body weights are recorded and they are placed in sealed chambers (43×43×10 cm) of the calorimeter and the chambers are placed in activity monitors. […] The activity monitors have 15 infrared light beams spaced one inch apart on each axis; ambulatory activity is recorded when two consecutive beams are broken and the results are recorded as counts. Oxygen consumption and ambulatory activity are measured every 10 minutes for 5-6.5 hours. […]

Consider `Cc1cc(NC(=O)C(=O)O)cc(C)c1Oc1ccc(O)c(C(C)C)c1` [CGS-23425, N-[3,5-dimethyl-4-(4′-hydroxy-3′-isopropylphenoxy)-phenyl]-oxamic acid], for which the stimulated oxygen consumption (dose of 1.0 mg/kg body weight) was found to be 27%.

The compound `CCOC(=O)C(=O)Nc1cc(C)c(Oc2ccc(O)c(C(O)c3ccc(F)cc3)c2)c(C)c1` (centres unmarked) [CGS-26214, ethyl N-[4-[3′-[(4-fluorophenyl)hydroxymethyl]-4′-hydroxyphenoxy]-3,5-dimethylphenyl]oxamate] gave a stimulated oxygen consumption (doses of 0.005 to 0.3 mg/kg body weight) of 14 to 31%.
